Key:
Rec1 = test: Antiproliferative activity against human Rec1 cells assessed as inhibition of cell proliferation incubated for 72 hrs by Cell-titer-Glo luminescent cell viability assay; assay type: functional, cell-based; conditions: Rec1, 72 h
JeKo-1 = test: Antiproliferative activity against human JeKo1 cells assessed as inhibition of cell proliferation incubated for 72 hrs by Cell-titer-Glo luminescent cell viability assay; assay type: functional, cell-based; conditions: JeKo-1, 72 h
Maver1 = test: Antiproliferative activity against human Maver1 cells assessed as inhibition of cell proliferation incubated for 72 hrs by Cell-titer-Glo luminescent cell viability assay; assay type: functional, cell-based; conditions: Maver1, 72 h
Z-138 = test: Antiproliferative activity against human Z138 cells assessed as inhibition of cell proliferation incubated for 72 hrs by Cell-titer-Glo luminescent cell viability assay; assay type: functional, cell-based; conditions: Z-138, 72 h
[1] = Antiproliferative activity against human Mino cells assessed as inhibition of cell proliferation incubated for 72 hrs by Cell-titer-Glo luminescent cell viability assay; assay type: functional, cell-based
[2] = Stability in human liver microsomes assessed as compound remaining incubated of 60 mins in presence of NADPH regenerating system by LC/MS analysis; conditions: microsomes

With `C=CC(=O)N1CCCC(n2nc(-c3ccc(Oc4ccccc4)cc3)cc2C(=O)OCC)C1` (racemic) the IC50 (Rec1) was 13.8 µM, the IC50 (JeKo-1) was 21.2 µM and the IC50 (Maver1) was greater than 60 µM. The IC50 (Z-138) was 44 µM and the IC50 [1] was 42.3 µM.
Compound `C=CC(=O)Nc1cccc(Cn2nc(-c3ccc(Oc4ccccc4)cc3)cc2C(=O)OCC)c1` has an IC50 (Rec1) of 3.3 µM, an IC50 (JeKo-1) of 7.6 µM and an IC50 (Maver1) of 8.6 µM. It also gave an IC50 (Z-138) of 7.8 µM and an IC50 [1] of 5.7 µM.
`O=C(CCl)Nc1ccc(Cn2nc(-c3ccc(Oc4ccccc4)cc3)cc2C(=O)O)cc1` showed an IC50 (Rec1) of 4 µM, an IC50 (JeKo-1) of 2.5 µM and an IC50 (Maver1) of 1.2 µM. For the same compound, the IC50 (Z-138) was 1.5 µM and the IC50 [1] was 4.5 µM.
For `CCOC(=O)c1cc(-c2ccc(Oc3ccccc3)cc2)nn1Cc1ccc(NC(=O)CCl)cc1`, the IC50 (Rec1) was 0.4 µM, the IC50 (JeKo-1) was 0.4 µM and the IC50 (Maver1) was 0.4 µM. For the same compound, the IC50 (Z-138) was 0.4 µM and the IC50 [1] was 0.6 µM.
`O=C(CCl)Nc1cccc(Cn2nc(-c3ccc(Oc4ccccc4)cc3)cc2C(=O)O)c1` showed an IC50 (Rec1) of 7.1 µM, an IC50 (JeKo-1) of 6.3 µM and an IC50 (Maver1) of 4.7 µM. The IC50 (Z-138) was 9.1 µM and the IC50 [1] was 11.7 µM.
In the case of `O=C(CCl)N1CCCC(n2nc(-c3ccc(Oc4ccccc4)cc3)cc2CO)C1` (racemic), the IC50 (Rec1) is reported as 0.4 µM, the IC50 (JeKo-1) is reported as 7.8 µM and the IC50 (Maver1) is reported as 1.1 µM. The IC50 (Z-138) was 0.4 µM and the IC50 [1] was 6 µM.
Compound `O=C(O)c1cc(-c2ccc(Oc3ccccc3)cc2)nn1C1CCCN(C(=O)CCl)C1` (racemic) has an IC50 (Rec1) of 2.2 µM, an IC50 (JeKo-1) of 3.6 µM and an IC50 (Maver1) of 0.4 µM. For the same compound, the IC50 (Z-138) was 2.8 µM and the IC50 [1] was 2.5 µM.
With `C/C=C/C(=O)Nc1cccc(Cn2nc(-c3ccc(Oc4ccccc4)cc3)cc2C(=O)O)c1` the IC50 (Rec1) was 26 µM, the IC50 (JeKo-1) was greater than 60 µM and the IC50 (Maver1) was 31.6 µM. The IC50 (Z-138) was 24.1 µM and the IC50 [1] was 23.3 µM.
Work on `C=CC(=O)Nc1cccc(Cn2nc(-c3ccc(Oc4ccccc4)cc3)cc2CO)c1` yielded an IC50 (Rec1) of 1.3 µM, an IC50 (JeKo-1) of 5.2 µM and an IC50 (Maver1) of 6.7 µM. It also gave an IC50 (Z-138) of 6 µM and an IC50 [1] of 3.3 µM.
Compound `C/C=C/C(=O)Nc1cccc(Cn2nc(-c3ccc(Oc4ccccc4)cc3)cc2C(=O)OCC)c1` has an IC50 (Rec1) of 7.8 µM, an IC50 (JeKo-1) of 16.7 µM and an IC50 (Maver1) of 14.2 µM. For the same compound, the IC50 (Z-138) was 8.9 µM and the IC50 [1] was 16.5 µM.
With `C/C=C/C(=O)Nc1cccc(Cn2nc(-c3ccc(Oc4ccccc4)cc3)cc2CO)c1` the IC50 (Rec1) was 3.4 µM, the IC50 (JeKo-1) was 22.6 µM and the IC50 (Maver1) was 8.1 µM. For the same compound, the IC50 (Z-138) was 5.7 µM and the IC50 [1] was 4.9 µM.
`C/C=C/C(=O)N1CCCC(n2nc(-c3ccc(Oc4ccccc4)cc3)cc2C(=O)OCC)C1` (racemic) gave an IC50 (Rec1) of 5.1 µM, an IC50 (JeKo-1) of 26.5 µM and an IC50 (Maver1) of 19.6 µM. It also gave an IC50 (Z-138) of 19.1 µM and an IC50 [1] of 11.7 µM.
`C[C@]12CC[C@H]3[C@@H](CCC4=CC(=O)CC[C@@]43C)[C@@H]1CC[C@@H]2O` [TESTOSTERONE] gave a remaining at 1 h [2] of 4.2%.
For `C=CC(=O)N1CCCC(n2nc(-c3ccc(Oc4ccccc4)cc3)cc2C(=O)O)C1` (racemic), the IC50 (Rec1) was 50 µM, the IC50 (JeKo-1) was greater than 60 µM and the IC50 (Maver1) was greater than 60 µM. It also gave an IC50 (Z-138) greater than 60 µM and an IC50 [1] greater than 60 µM.
For `C=CC(=O)Nc1ccc(Cn2nc(-c3ccc(Oc4ccccc4)cc3)cc2CO)cc1`, the IC50 (Rec1) was 3.5 µM, the IC50 (JeKo-1) was 8 µM and the IC50 (Maver1) was 7 µM. The IC50 (Z-138) was 6.8 µM and the IC50 [1] was 5.2 µM.
